Measurements as given in patent US20240252488A1 (KOREA RESEARCH INSTITUTE OF CHEMICAL TECHNOLOGY, priority 2020, published 2024).

What was measured:
MLKL [1] = target: T1, MLKL (Homo sapiens, UniProt Q8NB16); assay: Measurement of binding affinity with MLKL receptor (competitive binding assay, Kd); set-up: made in house; host or cells: HEK 293 cell line (T7 phage in E. coli BL21-derived host is also described)
T1 sequence (Q8NB16 1-471): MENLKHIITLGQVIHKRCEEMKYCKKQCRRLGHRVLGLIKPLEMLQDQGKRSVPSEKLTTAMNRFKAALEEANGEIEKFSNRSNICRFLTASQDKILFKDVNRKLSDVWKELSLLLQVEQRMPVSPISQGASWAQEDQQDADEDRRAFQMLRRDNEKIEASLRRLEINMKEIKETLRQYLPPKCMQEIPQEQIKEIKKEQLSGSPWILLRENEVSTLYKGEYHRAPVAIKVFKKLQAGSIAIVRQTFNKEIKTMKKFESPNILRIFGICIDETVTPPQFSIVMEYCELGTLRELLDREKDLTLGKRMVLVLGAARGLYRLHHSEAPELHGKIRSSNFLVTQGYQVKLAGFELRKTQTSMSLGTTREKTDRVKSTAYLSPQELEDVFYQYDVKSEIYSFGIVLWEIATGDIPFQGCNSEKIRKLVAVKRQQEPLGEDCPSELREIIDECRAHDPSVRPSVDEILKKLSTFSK
Method in brief: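 Kd from an immobilized-ligand competition format: the DNA-tagged kinase from HEK 293 expression is eluted and quantified by qPCR. Compounds added from 111× DMSO stocks, final DMSO 0.9%.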

FADD−/− Jurkat cells = assay: Necroptosis inhibition assay, TNF-α-induced necroptosis (CellTiter-Glo 2.0); format: cell-based, human; conditions: TNF-α 15 ng/mL; for Necroptosis inhibition assay (Rescue %) 1 μM: compound 1 μM; for Necroptosis inhibition assay (Rescue %) 10 μM: compound 10 μM
Method in brief: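 Cells at 5.0×10^5 cells/mL were pretreated with compound (final 0.1, 1 and 10 μM) for 30 minutes at room temperature, then given TNF-α at 15 ng/mL final. After 20 to 24 hours at 37° C, 5% CO2, viability was read as ATP luminescence to calculate cytotoxicity and necroptosis inhibition rate.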

MLKL [2] = target: T1, MLKL; assay: MLKL degradation assay in HepG2 cell line (western blot); format: cell-based; set-up: endogenous in cells; host or cells: HepG2 or HaCaT; conditions: cell line not given; for Degradation assay (Degradation %) 1 μM: compound 1 μM; for Degradation assay (Degradation %) 10 μM: compound 10 μM
Method in brief: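 HepG2 cells were exposed to compound at a final 1 or 10 μM for 20-24 hours at 37 °C, 5% CO2. RIPA lysates were normalized by BCA assay, 10-15 μg protein resolved by SDS-PAGE, and MLKL levels detected by western blot with chemiluminescence.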

SMILES | Kd (MLKL [1]) | Necroptosis inhibition assay (Rescue %) 1 μM (FADD−/− Jurkat cells) | Necroptosis inhibition assay (Rescue %) 10 μM (FADD−/− Jurkat cells) | Degradation assay (Degradation %) 1 μM (MLKL [2]) | Degradation assay (Degradation %) 10 μM (MLKL [2])
Nc1ncc(-c2cnn(C3CCN(CCC4CCN(C(=O)CC5CCN(c6ccc7c(c6)C(=O)N(C6CCC(=O)NC6=O)C7=O)CC5)CC4)CC3)c2)nc1C(=O)O[C@@H](C(=O)Nc1ccc(F)cc1)c1ccccc1 (stereo partly drawn) [TDH-367, (R)-2-((4-fluorophenyl)amino)-2-oxo-1-phenylethyl 3-amino-6-(1-(1-(2-(1-(2-(1-(2-(2,6-dioxopiperidin-3-yl)-1,3-dioxoisoindolin-5-yl)piperidin-4-yl)acetyl)piperidin-4-yl)ethyl)piperidin-4-yl)-1H-pyrazol-4-yl)pyrazine-2-carboxylate] | 0.82 nM | 36.86% | 21.34% | 84.28% | 80.64%
Nc1ncc(-c2cnn(C3CCN(CCCN4CCN(C(=O)CC5CCN(c6cccc7c6C(=O)N(C6CCC(=O)NC6=O)C7=O)CC5)CC4)CC3)c2)nc1C(=O)O[C@@H](C(=O)Nc1ccc(F)cc1)c1ccccc1 (stereo partly drawn) [TDH-368, (R)-2-((4-fluorophenyl)amino)-2-oxo-1-phenylethyl 3-amino-6-(1-(1-(3-(4-(2-(1-(2-(2,6-dioxopiperidin-3-yl)-1,3-dioxoisoindolin-4-yl)piperidin-4-yl)acetyl)piperazin-1-yl)propyl)piperidin-4-yl)-1H-pyrazol-4-yl)pyrazine-2-carboxylate] | 1 nM | 40.51% | 5.97% | 86.09% | 88.6%
Nc1ncc(-c2cnn(C3CCN(CCCN4CCN(C(=O)CC5CCN(c6ccc7c(c6)C(=O)N(C6CCC(=O)NC6=O)C7=O)CC5)CC4)CC3)c2)nc1C(=O)O[C@@H](C(=O)Nc1ccc(F)cc1)c1ccccc1 (stereo partly drawn) [TDH-369, (R)-2-((4-fluorophenyl)amino)-2-oxo-1-phenylethyl 3-amino-6-(1-(1-(3-(4-(2-(1-(2-(2,6-dioxopiperidin-3-yl)-1,3-dioxoisoindolin-5-yl)piperidin-4-yl)acetyl)piperazin-1-yl)propyl)piperidin-4-yl)-1H-pyrazol-4-yl)pyrazine-2-carboxylate] | 1.1 nM | 48.04% | 22.49% | 73.33% | 94%
Nc1ncc(-c2cnn(C3CCN(CCCN4CCN(C(=O)COc5ccc6nnn(C7CCC(=O)NC7=O)c(=O)c6c5)CC4)CC3)c2)nc1C(=O)O[C@@H](C(=O)Nc1ccc(F)cc1)c1ccccc1 (stereo partly drawn) [TDH-370, (R)-2-((4-fluorophenyl)amino)-2-oxo-1-phenylethyl 3-amino-6-(1-(1-(3-(4-(2-((3-(2,6-dioxopiperidin-3-yl)-4-oxo-3,4-dihydrobenzo[d][1,2,3]triazin-6-yl)oxy)acetyl)piperazin-1-yl)propyl)piperidin-4-yl)-1H-pyrazol-4-yl)pyrazine-2-carboxylate] | 0.28 nM | 52.00% | 24.38% | 91.76% | 85.83%
Nc1ncc(-c2cnn(C3CCN(CCOC4CCN(C(=O)CC5CCN(c6cccc7c6C(=O)N(C6CCC(=O)NC6=O)C7=O)CC5)CC4)CC3)c2)nc1C(=O)O[C@@H](C(=O)Nc1ccc(F)cc1)c1ccccc1 (stereo partly drawn) [TDH-371, (R)-2-((4-fluorophenyl)amino)-2-oxo-1-phenylethyl 3-amino-6-(1-(1-(2-((1-(2-(1-(2-(2,6-dioxopiperidin-3-yl)-1,3-dioxoisoindolin-4-yl)piperidin-4-yl)acetyl)piperidin-4-yl)oxy)ethyl)piperidin-4-yl)-1H-pyrazol-4-yl)pyrazine-2-carboxylate] | 3.7 nM | 35.76% | 25.74% | 82.38% | 83.26%
Nc1ncc(-c2cnn(C3CCN(CCOC4CCN(C(=O)CC5CCN(c6ccc7c(c6)C(=O)N(C6CCC(=O)NC6=O)C7=O)CC5)CC4)CC3)c2)nc1C(=O)O[C@@H](C(=O)Nc1ccc(F)cc1)c1ccccc1 (stereo partly drawn) [TDH-372, (R)-2-((4-fluorophenyl)amino)-2-oxo-1-phenylethyl 3-amino-6-(1-(1-(2-((1-(2-(1-(2-(2,6-dioxopiperidin-3-yl)-1,3-dioxoisoindolin-5-yl)piperidin-4-yl)acetyl)piperidin-4-yl)oxy)ethyl)piperidin-4-yl)-1H-pyrazol-4-yl)pyrazine-2-carboxylate] | 12 nM | 26.36% | 28.54% | 78.14% | 81.79%
Nc1ncc(-c2cnn(C3CCN(CCOC4CCN(C(=O)COc5ccc6nnn(C7CCC(=O)NC7=O)c(=O)c6c5)CC4)CC3)c2)nc1C(=O)O[C@@H](C(=O)Nc1ccc(F)cc1)c1ccccc1 (stereo partly drawn) [TDH-373, (R)-2-((4-fluorophenyl)amino)-2-oxo-1-phenylethyl 3-amino-6-(1-(1-(2-((1-(2-((3-(2,6-dioxopiperidin-3-yl)-4-oxo-3,4-dihydrobenzo[d][1,2,3]triazin-6-yl)oxy)acetyl)piperidin-4-yl)oxy)ethyl)piperidin-4-yl)-1H-pyrazol-4-yl)pyrazine-2-carboxylate] | 1.4 nM | 62.68% | 40.09% | 87.78% | 86.6%
Nc1ncc(-c2cnn(C3CCN(C(=O)C4CCN(C(=O)CC5CCN(c6cccc7c6C(=O)N(C6CCC(=O)NC6=O)C7=O)CC5)CC4)CC3)c2)nc1C(=O)O[C@@H](C(=O)Nc1ccc(F)cc1)c1ccccc1 (stereo partly drawn) [TDH-374, (R)-2-((4-fluorophenyl)amino)-2-oxo-1-phenylethyl 3-amino-6-(1-(1-(1-(2-(1-(2-(2,6-dioxopiperidin-3-yl)-1,3-dioxoisoindolin-4-yl)piperidin-4-yl)acetyl)piperidine-4-carbonyl)piperidin-4-yl)-1H-pyrazol-4-yl)pyrazine-2-carboxylate] | 2.7 nM | 39.14% | 32.53% | 93.73% | 91.38%
Nc1ncc(-c2cnn(C3CCN(C(=O)C4CCN(C(=O)CC5CCN(c6ccc7c(c6)C(=O)N(C6CCC(=O)NC6=O)C7=O)CC5)CC4)CC3)c2)nc1C(=O)O[C@@H](C(=O)Nc1ccc(F)cc1)c1ccccc1 (stereo partly drawn) [TDH-375, (R)-2-((4-fluorophenyl)amino)-2-oxo-1-phenylethyl 3-amino-6-(1-(1-(1-(2-(1-(2-(2,6-dioxopiperidin-3-yl)-1,3-dioxoisoindolin-5-yl)piperidin-4-yl)acetyl)piperidine-4-carbonyl)piperidin-4-yl)-1H-pyrazol-4-yl)pyrazine-2-carboxylate] | 2.3 nM | 30.67% | 20.44% | 93.86% | 86.43%
